From PubChem BioAssay (NCI)
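A five-concentration, 48-hour dose response in 96-well plates underlies each endpoint, interpolated linearly between surrounding concentrations. TGI marks complete inhibition of growth.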

Key:
Assay in all cases: NCI tumour cell line growth inhibition, 48 h
[1] = test system: SR leukemia
[2] = test system: RPMI-8226 leukemia
[3] = test system: NCI-H522 lung
[4] = test system: KM12 colon
[5] = test system: OVCAR-3 ovarian
[6] = test system: HCT-116 colon
[7] = test system: UACC-62 melanoma
[8] = test system: SF-268 CNS
[9] = test system: SF-539 CNS
[10] = test system: MALME-3M melanoma

SMILES	TGI [1] [µM]	TGI [2] [µM]	TGI [3] [µM]	TGI [4] [µM]	TGI [5] [µM]	TGI [6] [µM]	TGI [7] [µM]	TGI [8] [µM]	TGI [9] [µM]	TGI [10] [µM]
OC(CC(c1ccccc1)c1ccc(Cl)cc1)c1ccc(Cl)cc1 (stereo not given)	73.5	70	69.1	> 100	81.6	> 100	> 100	> 100	> 100	79.1
c1ccc2c(c1)CC1c3[nH]c4ccccc4c3CCN21 (stereo not given)	> 10	> 10	> 10	> 10	> 10	> 10	> 10	> 10	> 10	> 10
Cc1nc2c(n1Cc1ccc(Cl)cc1)C(=O)c1ccccc1C2=O	> 75		> 75	> 75	> 75	> 75	> 75	> 75	> 75	> 75
CC(=O)O[C@]12CCCCCCC1C1(O)C(O)CCC[C@H]12 (stereo not given in full)	> 100	> 100	> 100	> 100		> 100	> 100	> 100		> 100
O=S1(=O)NNC(=NCc2ccc(F)cc2)c2ccccc21	> 68.8	> 78.8		> 100	> 100	> 100	> 100	> 100	> 100	> 100
CC(=O)N[C@@H](Cc1ccc(O)cn1)C(=O)NCc1ccc2c(c1)OCO2	> 100	> 100	> 100	> 100	> 100	> 100	> 100	> 100	> 100	> 100
Cc1ncc([N+](=O)[O-])n1CCN=[N+]=[N-]	> 100	> 100	> 100	> 100	> 100	> 100	> 100	> 100	> 100	> 100
COc1ccc(C2CC(c3c(C)nn(-c4ccccc4)c3-c3ccc(C)cc3O)=NN2c2ccccc2)cc1 (stereo not given)	> 100	> 100	> 100	> 43.7	> 100	> 100	> 100	> 100	> 100	> 100
COc1cc(C2C(Cl)C(=O)N2c2ccc(Br)cc2)cc(I)c1O (stereo not given)	> 100	> 100	> 100	> 100	> 100	> 100	> 100	> 100	> 100	
O=C1c2cc([N+](=O)[O-])ccc2NC2C(O)c3ccccc3N12 (stereo not given)	56.2	44.1	38.7	> 100	> 100	> 100	47.9	> 100	74.7	
c1ccc2c3c(ccc2c1)CSCc1ccc2ccccc2c1-3	> 100	> 100	> 100	> 100	> 100	> 100	> 100	> 100	> 100	> 100
O=C1CSC2(CC(/C=C/C=C/c3ccccc3)=NN2c2cccc(S(=O)(=O)O)c2)N1c1nc2ccccc2s1 (stereo not given)	60.1	55	> 100	> 100		> 100	> 100		> 100	
CN(C)CCCn1c2ccccc2c2cnccc21	43.4	71.6	> 100	> 100	> 100	> 100	> 100	> 100	48.2	83.3
Cc1ccc2ccccc2c1CC1S(=O)(=O)OCCOS1(=O)=O	24.9	32.3		29.3	19.5	26				25.2
CCCCCCCCCCCCC(=O)NCC(=O)NC(Cc1ccccc1)C(=O)Oc1ccc([N+](=O)[O-])cc1 (stereo not given)	> 100		81	> 100	> 100	> 100	> 100	> 100	> 100	
C/C(=N\N=C(N)N)c1c(C(=O)OCCCCCCOC(=O)c2nc3sccn3c2/C(C)=N/N=C(N)N)nc2sccn12	41.2	> 100	> 100	> 100		> 100	> 100	> 100		> 100
CC(=O)Oc1ccc2cc(Oc3ccc(Cl)cc3)c(=O)oc2c1	> 100	> 100	89.6	> 100	57.8	> 100		> 100	82.7	> 100
COc1ccc(CNc2nc(NCc3ccc(OC)cc3)nc(NC3CCCCC3)n2)cc1	> 100	> 100	3.39	5.47	6.24	11.7	9.41	6.5	> 100	1.61
O=C1CCC2(CC1)Cc1ccccc1C2O (stereo not given)	> 100		> 100	> 100		> 100	> 100	> 100	> 100	> 100
CCCCC[C@H](O)[C@H](C)C=C1SCCCS1	> 100	> 100	> 100	> 100	> 100	> 100	> 100	> 100		> 100
NC1=NS(=O)(=O)N=C(N)C1=Cc1ccc([N+](=O)[O-])o1	29.2	70	31.5	34.5	32.4	28.7	30.2	31.3	32.3	29.7
O=C1C/C(=C\O)C(=O)c2ccccc2N1	> 100		> 100	> 100	> 100	> 100	> 100	> 100	> 100	> 100
C#CC(C)(C)Oc1cc(OC)c2c(=O)c3ccccc3n(C)c2c1	14.9	25		37.8		> 100	32	73	76	
